{
  "source": "patent EP4635959A1",
  "about": "“NOVEL CRYSTALLINE FORM OF MAGNESIUM-SERINATE AND METHOD FOR PRODUCING SAME” (Astrogen, Inc., priority 2022, dated 2024)",
  "key": {"primary mouse astrocytes": {"test_system": "primary mouse astrocytes", "assay": "Cytoprotective effect on oxidative stress induced by DMNQ (MTT cell viability)", "assay_type": "cell-based", "conditions": "for cell viability: pre-treated 6 hours with 1 mM, 2 mM, 5 mM, then DMNQ (30 µM) with compound for 16 hours, MTT, Fig. 8"}, "[1]": {"assay": "pH measurement of aqueous sample", "assay_type": "physicochemical", "conditions": "0.5 g of sample in water, final volume 10 mL", "procedure": "(§1) Moisture and pH evaluations were performed in the same manner as in Experimental Example 7, and the heavy metal test and the content test were performed in the same manner as in Example 1.\n(§2) The crystalline form of the present application prepared in Example 1 and the amorphous form of AST-011 (Comparative Example 2) were comparatively evaluated for the following test items by the following methods, and the results are shown in Table 7 below. - Appearance evaluation: Visual observation - Moisture measurement: According to the moisture measurement method (Karl Fischer method) of the general test method of the 12th edition of the Korean Pharmacopoeia, measured by adding 0.5 g of the sample into a moisture meter (Mettler Toledo, V10-S, Switzerland). - Infrared spectrum measurement method (IR): Measurement was made with FT-IR equipment (PerkinElmer, Spectrum 2, USA) according to the ATR measurement method of the general test method of the 12th revision of the Korean Pharmacopoeia. - pH measurement: 0.5 g of the sample was added into a 10 mL volumetric flask, and water was added to a final volume of 10 mL, and measurement was made with a pH meter (Mettler Toledo, FP-20 Switzerland). - XRD and DSC analyses: The analyses were performed in the same way as in Experimental Examples 2 and 3."}, "[2]": {"assay": "Moisture measurement (Karl Fischer method)", "assay_type": "physicochemical", "conditions": "0.5 g of sample", "procedure": "as §1, §2"}, "[3]": {"assay": "Evaluation of occurrence of polymorphic transition on storage (PXRD and DSC)", "assay_type": "physicochemical", "conditions": "for DSC Endothermic Temperature: (dec.)", "procedure": "In order to confirm whether the polymorphic transition of the magnesium-serinate crystalline form of the present invention occurs over time, PXRD and DSC analyses were performed in the initial state and after 4 weeks to confirm whether or not the polymorphic transition occurred.\nSpecifically, the crystalline form prepared in Example 2 was added into a polyethylene bag, placed in a stability chamber under conditions of a temperature of 40 °C and a relative humidity of 75 %, and stored for 4 weeks. PXRD and DSC analyses were performed in substantially the same manner as in Experimental Examples 2 and 3."}, "[4]": {"assay": "Stability test under harsh condition (qNMR, maleic acid standard)", "assay_type": "physicochemical", "procedure": "In order to confirm the stability of the crystalline form of the present invention depending on conditions, a stability test was conducted under harsh conditions.\nThe magnesium-serinate crystalline form prepared in Example 2 was stored in a solid state at 70 °C and in an aqueous solution having a concentration of 0.5 mg/mL at 25 °C (60.0 % relative humidity) for 21 days, respectively, and then maleic acid was set as a standard substance, and the stability (measurement of content and related materials) was confirmed through qNMR analysis.\nFor the qNMR analysis method, analysis conditions were established by measuring the spin-lattice relaxation time T1 of the nuclide ^1H of magnesium-serinate on the sample obtained through the preliminary stress test. The T1 value was set at 4.708 seconds, and the measurement waiting time (d1: delay time) and measurement time (at: acquisition time) were set based on this value. The measurement waiting time (d1) was set to 30 seconds, and the measurement time (at) was set to being equal to or greater than the T1 value.\nFor the ^1H-NMR measurement for qNMR analysis, JEOL's JNM-ECX400I (400 MHz) NMR equipment was used, and spectral width (sw) was set at 6,000 Hz to sufficiently reflect the frequency range from 0 ppm to 10 ppm."}, "[5]": {"assay": "Appearance evaluation on storage (visual observation)", "assay_type": "physicochemical", "conditions": "storage for 3 months under the same conditions as AST-011", "from_the_text": "as §2, with “3. […]” for “3.”"}, "[6]": {"conditions": "initial vs after 4 weeks at 40 °C, relative humidity 75 %"}, "[7]": {"conditions": "25°C, Aqueous solution state (0.5 mg/mL, 60.0 % relative humidity), initial state"}, "[8]": {"conditions": "70°C, Solid state, initial state"}},
  "data": [
    {"compound": "COC1=C(OC)C(=O)c2ccccc2C1=O", "note": "[DMNQ, 1,4-naphthoquinone]", "values": [
      {"measurement": "cytotoxicity at 30 µM", "setting": "primary mouse astrocytes; Mus musculus, Astrocyte, 16 h, read-out: cells killed by oxidative stress", "result": "~50", "unit": "%"}
    ]},
    {"compound": "N[C@@H](CO)C(=O)O", "note": "[Comparative Example 1, L-serine]", "values": [
      {"measurement": "cell viability", "setting": "primary mouse astrocytes", "result": "excellent"}
    ]},
    {"compound": "N[C@@H](CO)C(=O)[O-].N[C@@H](CO)C(=O)[O-].[Mg+2]", "note": "[Crystalline Form of Present Application, magnesium-di-(2S)-2-amino-3-hydroxypropanoate]", "values": [
      {"measurement": "pH", "setting": "[1]", "result": 10.3},
      {"measurement": "Moisture Content", "setting": "[2]", "result": 0.2, "unit": "%"},
      {"measurement": "Moisture Content", "setting": "[2]; listed as Example 2", "result": 0.1, "unit": "%"},
      {"measurement": "DSC Endothermic Temperature", "setting": "[3]; after 4 weeks at 40 °C and relative humidity of 75 %, polyethylene bag", "result": "282.5 °C (dec.)"},
      {"measurement": "Result of Comparative Analysis", "setting": "[3]; [6]", "result": "no occurrence of polymorphic transition"},
      {"measurement": "Result of PXRD Analysis", "setting": "[3]; [6]", "result": "same crystalline form"},
      {"measurement": "DSC Endothermic Temperature", "setting": "[3]; initial", "result": "283.0 °C (dec.)"},
      {"measurement": "cell viability", "setting": "primary mouse astrocytes", "result": "excellent"},
      {"measurement": "Purity of magnesium-serinate (%)", "setting": "[4]; 25°C, Aqueous solution state (0.5 mg/mL, 60.0 % relative humidity), 9 days", "result": 100.07, "unit": "%"},
      {"measurement": "Concentration of Total Related Materials (%)", "setting": "[4]; 25°C, Aqueous solution state (0.5 mg/mL, 60.0 % relative humidity), 21 days", "result": 0.00, "unit": "%"},
      {"measurement": "Concentration of Total Related Materials (%)", "setting": "[4]; [7]", "result": 0.00, "unit": "%"},
      {"measurement": "Purity of magnesium-serinate (%)", "setting": "[4]; [7]", "result": 100.12, "unit": "%"},
      {"measurement": "Purity of magnesium-serinate (%)", "setting": "[4]; 70°C, Solid state, 9 days", "result": 100.15, "unit": "%"},
      {"measurement": "Concentration of Total Related Materials (%)", "setting": "[4]; 70°C, Solid state, 21 days", "result": 0.00, "unit": "%"},
      {"measurement": "Concentration of Total Related Materials (%)", "setting": "[4]; [8]", "result": 0.00, "unit": "%"},
      {"measurement": "Purity of magnesium-serinate (%)", "setting": "[4]; [8]", "result": 100.12, "unit": "%"},
      {"measurement": "Appearance (stability)", "setting": "[5]", "result": "Fig. 7(b) light gray or white powder (stability: no change after 3 months)"}
    ]}
  ]
}
